Test results from US20040067991A1, “Tetrahydrobenzothiazole analogues as neuroprotective agents” (priority 2003, published 2004).
Where a name gives a salt, the structure may show the parent alone.

Tested on: PC12 cells
Assay: Protection of PC12 cells against camptothecin-induced cell death (BCECF AM fluorescence)
Assay type: cell-based
Settings: 6 h preincubation with compound, camptothecin 40 μM for 24 h; read-out: PD50; concentration of compounds required to induce 50% protection (PC50) of PC12 cells from camptothecin-induced cell-death
Protocol: The 2-amino-4,5,6,7-tetrahydrobenzothiazole hydrogen iodide, 1-(4-methylphenyl)-2-(4,5,6,7-tetrahydro-2-imino-3(2H)-benzothiazolyl)-ethanone hydrobromide, and analogues were tested for their ability to protect PC12 cells against the toxic agent, camptothecin. PC12 cells were cultured in RPMI1640 media containing 10% horse serum and 5% fetal calf serum (37° C., pH 7.4) until confluent. Thereafter, 2.2×10^4 cells per mL were added to each trough of a 96 well plate (approximately 6,270 cells per well 285 μL) and were left to grow for 12 h. The media then was removed and was replaced by media with and without the compounds to be tested, including precursor, PFTα, and numerous analogues (concentration 100-400 nM, prepared in DMSO to a final dilution of 0.4%, 8 wells per concentration). Following 6 h of incubation, camptothecin (40 μM) was added to 4 of each 8 wells, and the cells were incubated for a further 24 h. Cells then were gently washed twice with phosphate buffered saline (PBS: 0.1 M, 37° C., pH 7.4) and were incubated in PBS containing the live-cell indicator dye, 2′,7′-bis(2-carboxyethey)-5-6-carboxyfluorescein AM ester (BCECF AM: 5 μM) (Molecular Probes, CA), for 45 min in minimal light. This fluorescent dye was taken up and retained by live cells. Finally, the cells were washed twice in PBS and their fluorescence then was quantified (excitation: 490 nm, emission: 535 nm, Perkin Elmer HTS 7000).
PC12 cell survival was also assessed. One hundred percent cell survival was determined from cells incubated in the absence of both any compound and camptothecin. […] Compound-induced toxicity was assessed by comparing cells treated with compound at various concentrations in the absence of camptothecin with cells incubated in the absence of both compound and camptothecin. […] Compound-induced cellular protection was assessed by comparing cells incubated with camptothecin with cells incubated with camptothecin in the presence of compound, in a concentration-dependent manner.

**Q.** Which EC50 does the source give for “1-(4-phenylphenyl)-2-(4,5,6,7-tertahydro-2-imino-3(2H)-benzothiazolyl)-ethanone hydrobromide [Compound 10]” here?
**A.** Its EC50 is 767 nM.

**Q.** Which EC50 does the source give for “2-Imino-3-butyl-4,5,6,7-tetrahydro-3(2H)-benzothiazole hydrobromide [Compound 26]” here?
**A.** Its EC50 is 395 nM.

**Q.** Which EC50 does the source give for “2-imino-3-(4′-cyanobenzyl)-4,5,6,7-tetrahydro-3(2H)-benzothiazole hydrobromide [Compound 21]” here?
**A.** Its EC50 is 418 nM.

**Q.** How did the EC50 turn out when “2-imino-3-(4′-fluorobenzyl)-4,5,6,7-tetrahydro-3(2H)-benzothiazole hydrobromide [Compound 16]” was run?
**A.** The EC50 was 154 nM.

**Q.** For “2-imino-3-(naphthalenylmethyl-4,5,6,7-tetrahydro-3(2H)-benzothiazole hydrobromide [Compound 24]”, which EC50 is on record?
**A.** Its EC50 is 318 nM.

**Q.** For `N=c1sc2c(n1CC(=O)c1ccc(F)cc1)CCCC2` [Compound 4, 1-(4-fluorophenyl)-2-(4,5,6,7-tertahydro-2-imino-3 (2H)-benzothiazolyl)-ethanone hydrobromide], which EC50 is on record?
**A.** The EC50 was 379 nM.

**Q.** With `Br.COc1ccc(C(=O)Cn2c3c(sc2=N)CCCC3)cc1` [Compound 6, 1-(4-methoxylphenyl)-2-(4,5,6,7-tertahydro-2-imino-3(2H)-benzothiazolyl)-ethanone hydrobromide] as the molecule, how does the EC50 read?
**A.** Its EC50 is 182 nM.

**Q.** For `Br.COc1ccccc1C(=O)Cn1c2c(sc1=N)CCCC2` [Compound 7, 1-(2-methoxylphenyl)-2-(4,5,6,7-tertahydro-2-imino-3(2H)-benzothiazolyl)-ethanone hydrobromide], which EC50 is on record?
**A.** The EC50 was 348 nM.

**Q.** Which EC50 does the source give for `N=c1sc2c(n1CC(=O)c1ccc([N+](=O)[O-])cc1)CCCC2` [Compound 11, 1-(4-nitrophenyl)-2-(4,5,6,7-tertahydro-2-imino-3(2H)-benzothiazolyl)ethanone hydrobromide] here?
**A.** Its EC50 is 410 nM.

**Q.** With `N=c1sc2c(n1Cc1ccc(F)cc1F)CCCC2` [Compound 17, 2-imino-3-(2′,4′-difluorobenzyl)-4,5,6,7-tetrahydro-3(2H)-benzothiazole hydrobromide] as the molecule, how does the EC50 read?
**A.** Its EC50 is 93 nM.

**Q.** How did the EC50 turn out when `Cc1ccc(Cn2c3c(sc2=N)CCCC3)cc1` [Compound 18, 2-imino-3-(4′-methylbenzyl)-4,5,6,7-tetrahydro-3(2H)-benzothiazole hydrobromide] was run?
**A.** Its EC50 is 1000 nM.

**Q.** `CC(C)(C)c1ccc(Cn2c3c(sc2=N)CCCC3)cc1` [Compound 19, 2-imino-3-(4′-tert-butylbenzyl)-4,5,6,7-tetrahydro-3(2H)-benzothiazole hydrobromide] was tested. Which EC50 did it give?
**A.** The EC50 was 315 nM.

**Q.** Which EC50 does the source give for `N=c1sc2c(n1Cc1ccc([N+](=O)[O-])cc1)CCCC2` [Compound 20, 2-imino-3-(4′-nitrobenzyl)-4,5,6,7-tetrahydro-3(2H)-benzothiazole hydrobromide] here?
**A.** The EC50 was 144 nM.

**Q.** Which EC50 does the source give for `N=c1sc2c(n1Cc1ccc(C(F)(F)F)cc1)CCCC2` [Compound 22, 2-imino-3-(4′-trifluorobenzyl)-4,5,6,7-tetrahydro-3(2H)-benzothiazole hydrobromide] here?
**A.** The EC50 was 327 nM.

**Q.** For `N=c1sc2c(n1CCc1ccccc1)CCCC2` [Compound 25, 2-imino-3-phenylethyl-4,5,6,7-tetrahydro-3(2H)-benzothiazole], which EC50 is on record?
**A.** Its EC50 is 1100 nM.

**Q.** `Cc1ccc(C(=O)Cn2c3c(oc2=N)CCCC3)cc1` [Compound 27, 1-(4-methylphenyl)-2-(4,5,6,7-tetrahydro-2-imino-3(2H)-benzoxazolyl)ethanone hydrobromide] was tested. Which EC50 did it give?
**A.** Its EC50 is 69 nM.

**Q.** With `CCC(=O)Cn1c2c(oc1=N)CCCC2` [Compound 28, 1-(4,5,6,7-tertahydro-2-imino-3(2H)-benzoxazolyl)-2-butanone hydrobromide] as the molecule, how does the EC50 read?
**A.** The EC50 was 143 nM.

**Q.** For `Cc1ccc(-c2cn3c4c(sc3n2)CCCC4)cc1` [Compound 29, 2-(4′-methylphenyl)-5,6,7,8-tetrahydroimidazo[2,1-b]benzothiazole], which EC50 is on record?
**A.** Its EC50 is 214 nM.

**Q.** `N=c1sc2c(n1Cc1cccc(Cn3c4c(sc3=N)CCCC4)n1)CCCC2` [Compound 30, 2,6-Bis[(4,5,6,7-tetrahydro-2-imino-3(2H)-benzothiazolyl)methyl]pyridine Dihydrobromide] was tested. Which EC50 did it give?
**A.** Its EC50 is 133 nM.

Same assay, conditions: compounds 100-400 nM, camptothecin 40 μM 24 h

**Q.** Which “protection of PC12 cells against camptothecin-induced death (in words)” value does the source give for `Br.COc1ccc(C(=O)Cn2c3c(sc2=N)CCCC3)cc1` [Compound 6, 1-(4-methoxylphenyl)-2-(4,5,6,7-tertahydro-2-imino-3(2H)-benzothiazolyl)-ethanone hydrobromide] here?
**A.** The value was “highly potent”.

**Q.** For `Br.COc1ccccc1C(=O)Cn1c2c(sc1=N)CCCC2` [Compound 7, 1-(2-methoxylphenyl)-2-(4,5,6,7-tertahydro-2-imino-3(2H)-benzothiazolyl)-ethanone hydrobromide], which “protection of PC12 cells against camptothecin-induced death (in words)” value is on record?
**A.** Its value is “highly potent”.
